For 4 compounds, viability, T/C and IC50 results are on record in PubChem BioAssay AID1845207 (Molecular Pharmacology Branch, DTP, NCI, 2023).

Each structure is given as a SMILES string. Several values for one entry are separate records, joined by “and”; a condition that tells them apart may be missing. Identical values can stand only once. A value given as a limit tells only on which side of the number the result lay.

The subject of the experiment is NCI-H1876 tumor spheroid viability. Kind of experiment: Anticancer human tumor NCI-H1876 cell line growth inhibition.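 As to all read-outs here: spheroids exposed to compounds for seven days before the viability read.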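 As to viability, T/C: percent of DMSO vehicle control viability so 100% = vehicle.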 To be noted: spheroids with HUVEC and MSC; for viability, T/C: stronger effect = lower value. In outline:
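Single agents and combinations were tested on spheroids built from tumor cells plus HUVEC and hMSC, at half-log dilutions starting at or near clinical Cmax, else 10 microM; final DMSO 0.25% (v/v).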

For orientation: viability, T/C means the ratio of treated to control. Broadly, the IC50 is the point on the concentration scale where inhibition reaches its midpoint.

Regarding `COc1cc(C)[nH]c(=O)c1CN1CCc2c(Cl)cc(C(OC)C3COC3)c(Cl)c2C1=O` (centres undefined), the viability, T/C runs as follows: (compound 0.0316 µM) 106% and 117% and 105%; (compound 0.1 µM) 109% and 112% and 103%; (compound 0.316 µM) 101% and 110% and 98.1%; (compound 1 µM) 102% and 103% and 92.3%; (compound 3.16 µM) 98.3% and 96.9% and 95.2%; (compound 10 µM) 94.2% and 77.4% and 86.5%. Moreover, where the note is “curve of compound”, the IC50 is > 10 µM.
Take `Cn1ncnc1[C@H]1c2n[nH]c(=O)c3cc(F)cc(c23)N[C@@H]1c1ccc(F)cc1` + CC[C@@]1(O)C(=O)OCc2c1cc1n(c2=O)Cc2cc3c(CN(C)C)c(O)ccc3nc2-1: the concentration for half-maximal inhibition (IC50) (curve of first compound, second compound 0.003 µM) is 0.0579 µM; the IC50 (curve of first compound, second compound 0.00949 µM) was < 0.00949 µM; the IC50 (curve of first compound, second compound 0.03 µM) was < 0.00949 µM; the concentration for half-maximal inhibition (IC50) (curve of first compound, second compound 0.0949 µM) is < 0.00949 µM; the concentration for half-maximal inhibition (IC50) (curve of first compound, second compound 0.3 µM) is < 0.00949 µM. Moreover, the viability, T/C is, setting by setting: (second compound 0.003 µM, first compound 0.00949 µM) 71%; (second compound 0.003 µM, first compound 0.03 µM) 60.4%; (second compound 0.003 µM, first compound 0.0949 µM) 36%; (second compound 0.003 µM, first compound 0.3 µM) 39.9%; (second compound 0.003 µM, first compound 0.949 µM) 6.31%; (second compound 0.003 µM, first compound 3 µM) 0.18%. Further, the viability, T/C is, setting by setting: (second compound 0.00949 µM, first compound 0.00949 µM) 44.6%; (second compound 0.00949 µM, first compound 0.03 µM) 37.4%; (second compound 0.00949 µM, first compound 0.0949 µM) 29%; (second compound 0.00949 µM, first compound 0.3 µM) 19.4%; (second compound 0.00949 µM, first compound 0.949 µM) 6.41%; (second compound 0.00949 µM, first compound 3 µM) 0.15%. Besides, the viability, T/C is, setting by setting: (second compound 0.03 µM, first compound 0.00949 µM) 14.9%; (second compound 0.03 µM, first compound 0.03 µM) 28.7%; (second compound 0.03 µM, first compound 0.0949 µM) 18.9%; (second compound 0.03 µM, first compound 0.3 µM) 18%; (second compound 0.03 µM, first compound 0.949 µM) 5.53%; (second compound 0.03 µM, first compound 3 µM) 0.13%. For the same compound, the viability, T/C was 9.15% (second compound 0.0949 µM, first compound 0.00949 µM); 28.8% (second compound 0.0949 µM, first compound 0.03 µM); 10.8% (second compound 0.0949 µM, first compound 0.0949 µM); 10.3% (second compound 0.0949 µM, first compound 0.3 µM); 3.73% (second compound 0.0949 µM, first compound 0.949 µM); 0.14% (second compound 0.0949 µM, first compound 3 µM). Also, the viability, T/C runs as follows: (second compound 0.3 µM, first compound 0.00949 µM) 3.72%; (second compound 0.3 µM, first compound 0.03 µM) 3.65%; (second compound 0.3 µM, first compound 0.0949 µM) 3.75%; (second compound 0.3 µM, first compound 0.3 µM) 3.83%; (second compound 0.3 µM, first compound 0.949 µM) 1.56%; (second compound 0.3 µM, first compound 3 µM) 13.9%.
For the compound `CC1COCCN1c1cc(-c2ccnn2C)c2ccnc(-c3ccn[nH]3)c2n1` (centres undefined), the viability, T/C runs as follows: (compound 0.0316 µM) 54% and 61.9% and 73.3%; (compound 0.1 µM) 32.2% and 41.5% and 41.2%; (compound 0.316 µM) 18.1% and 48.3% and 20.1%; (compound 1 µM) 6.97% and 20% and 7.21%; (compound 3.16 µM) 3.09% and 11.9% and 3.22%; (compound 10 µM) 2.37% and 7.33% and 2.52%. The IC50 (curve of compound) is 0.0391 µM and 0.121 µM and 0.0736 µM.
On to `CC1COCCN1c1cc(-c2ccnn2C)c2ccnc(-c3ccn[nH]3)c2n1` (centres undefined) + Cn1nnc2c(C(N)=O)ncn2c1=O, for which the IC50 is, setting by setting: (curve of first compound, second compound 1 µM) 0.0554 µM; (curve of first compound, second compound 3.16 µM) 0.0545 µM; (curve of first compound, second compound 10 µM) 0.0598 µM; (curve of first compound, second compound 31.6 µM) 0.0336 µM; (curve of first compound, second compound 100 µM) < 0.0316 µM. The viability, T/C was 57% (second compound 1 µM, first compound 0.0316 µM); 42.4% (second compound 1 µM, first compound 0.1 µM); 30.1% (second compound 1 µM, first compound 0.316 µM); 20.7% (second compound 1 µM, first compound 1 µM); 11.2% (second compound 1 µM, first compound 3.16 µM); 6.47% (second compound 1 µM, first compound 10 µM). Also, the viability, T/C is, setting by setting: (second compound 3.16 µM, first compound 0.0316 µM) 57.7%; (second compound 3.16 µM, first compound 0.1 µM) 41.3%; (second compound 3.16 µM, first compound 0.316 µM) 30.1%; (second compound 3.16 µM, first compound 1 µM) 19.4%; (second compound 3.16 µM, first compound 3.16 µM) 12.5%; (second compound 3.16 µM, first compound 10 µM) 6.71%. The viability, T/C is 53% (second compound 10 µM, first compound 0.0316 µM); 49.1% (second compound 10 µM, first compound 0.1 µM); 30.1% (second compound 10 µM, first compound 0.316 µM); 20% (second compound 10 µM, first compound 1 µM); 11% (second compound 10 µM, first compound 3.16 µM); 7.84% (second compound 10 µM, first compound 10 µM). The viability, T/C by setting is: (second compound 31.6 µM, first compound 0.0316 µM) 51.5%; (second compound 31.6 µM, first compound 0.1 µM) 35.6%; (second compound 31.6 µM, first compound 0.316 µM) 29.5%; (second compound 31.6 µM, first compound 1 µM) 17.2%; (second compound 31.6 µM, first compound 3.16 µM) 10.8%; (second compound 31.6 µM, first compound 10 µM) 7.29%. Besides, the viability, T/C by setting is: (second compound 100 µM, first compound 0.0316 µM) 32.2%; (second compound 100 µM, first compound 0.1 µM) 24%; (second compound 100 µM, first compound 0.316 µM) 18.8%; (second compound 100 µM, first compound 1 µM) 11.7%; (second compound 100 µM, first compound 3.16 µM) 28.5%; (second compound 100 µM, first compound 10 µM) 6.09%.
